According to patent US20230159436A1, “APPLICATIONS OF AMIDE ANALOGS OF TRITERPENES IN CURES OF CANCER AND OTHER DISEASES” (Pacific Arrow Limited, priority 2021, published 2023):

How the values were obtained:
KB cells = test: MTT assay, mouth (KB); format: cell-based
Description: (§1) Cells. HTB-9 (bladder), HeLa-S3 (cervix), DU145 (prostate), H460 (lung), MCF-7 (breast), K562 (leukemia), HCT116 (colon), HepG2 (liver), U2OS (bone), T98G (brain), SK-MEL-5 (Skin) and OVCAR 3, ES2 (ovary), Pancreas (Capan), Mouth (KB), Kidney (A498).
(§2) MTT Assay. The procedure for MTT assay followed the method described by Carmichael et al. (1987) with modifications. The cells were seeded into a 96-well plate at for 24 hours before drug-treatment. The cells were then exposed to the drugs for 48, 72, or 96 hours. After the drug-treatment, MTT (0.5 mg/mL) was added to cultures and incubated for an hour. The formazan (product of the reduction of tetrazolium by viable cells) formed and was dissolved with DMSO and the O.D. at 490 nm, and was measured by an ELISA reader. The MTT level of the cells before drug-treatment was also measured (T0). The % cell-growth (% G) is calculated as: % G=(TD−T0/TC−T0)×100(1), where TC or TD represents O.D. readings of control or drug-treated cells.
(§3) When T0>TD, then the cytotoxicity (LC) expressed as % of the control is calculated as: % LC=(TD−T0/T0)×100(2).

U2OS = test: MTT assay, bone (U2OS); format: cell-based
Description: as §1, §2, §3

K562 = test: MTT assay, leukemia (K562); format: cell-based, human
Description: as §1, §2, §3

T98G = test: MTT assay, brain (T98G); format: cell-based
Description: as §1, §2, §3

[1] = Pharmacokinetic (PK) study: blood from cutting tail; format: in vivo, mice; conditions: IP 100 mg/kg, estimated
Description: Pharmacokinetic (PK) Study: Blood from Cutting Tail • Method: • Drug-Treatment: • Mice: CD-1 female mice (6-7 weeks, 23-25 g) • mice were injected (IP) with Test drug sample (10 mg/ml, in […] at a dose of 100 mg/kg. • Blood was obtained from a mouse by cut-tail at 0.5, 2 and 4 hours after drug treatments. • At 24 hours after the drug treatment, mice were anesthetized with isoflurane and blood was obtained with cardiac puncture. Animals were then euthanized by cervical dislocation. • Plasma Isolation: • Blood (50-100 ul) was centrifuged (2000 g, 15 minutes). Plasma was collected from the top layer. • 1 volume of plasma was mixed with 3 volume of acetonitrile/0.005% TFA. Mixture was stored in refrigerator overnight. • Sample was centrifuged (16000 g,10 minutes). Supernatant (called Plasma in 75% AN/TFA soluble fractions) was collected and subjected to HPLC analysis. • HPLC Analysis Conditions: • Column: C18 μBondapak • Solvent: 60% acetonitrile/0.005% TFA (Trifluoroacetic acid) • Gradient: isocratic • Flow rate and run time: 1 ml/min for 30 minutes • Detection wavelength: 207 nm • O.D. range: 0.05 full scale • Calculation: • Standard cures of Test Drug is constructed (Area/3000K=1 ug Test Drug) • Area of Test Drug Peak from Sample is Recorded • Amount of Test Drug was calculated according to standard cures.

K562 cells = test: Inhibition of leukemia K562 cells growth (cell count); format: cell-based, human
Description: Method: • 1. Cells: Human leukemia cells K562 in RPMI1640 medium. • 2. Drug: Tig-S (1000× stock solution in DMSO). • 3. Start cells concentration: 50×10K per ml (500000/ml). • 4. Cells were cultured with or without drug for total of four days. • 5. Cell number is doubled after 2 days of incubation. Fresh medium (equal volume, with or without drug) was then added to culture. • 6. Cells were counted every day.

Structure (SMILES) | IC50 of mouth (KB) (KB cells) | IC50 of bone (U2OS) (U2OS) | IC50 of leukemia (K562) (K562) | IC50 of brain (T98G) (T98G) | half-life [1] | No grow (IC100) (K562 cells; beginning on day 2) | IC50, inhibition of Leukemia K562 cells growth (K562 cells; cell count, up to four days)
CC=C(C)C(=O)OCC1(C)C(O)CCC2(C)C1CCC1(C)C2CC=C2C3CC(C)(C)C(O)C(O)C3(COC(=O)C(C)=CC)C(O)CC21C (stereo not drawn) [Tig-R, 24,28-O-Tigloyl-3β,16α,21β,22α,24β,28-hexahydroxyolean-12-ene] | 3 µg/mL | 4.5 µg/mL | 2 µg/mL | 8 µg/mL | about one | – | –
CC=C(C)C(=O)OCC1(C)C(O)CCC2(C)C1CCC1(C)C2CC=C2C3CC(C)(C)C(OC(=O)C(C)=CC)C(O)C3(CO)C(O)CC21C (stereo not shown) [Tig-S] | – | – | – | – | – | ≥ 2.5 µg/mL | about 0.6 ug/ml
